Measured values: US20180170942A1, “POLYCYCLIC DERIVATIVES TARGETING RAL GTPASES AND THEIR THERAPEUTICAL APPLICATIONS” (NANTBIO, INC., priority 2015, published 2018)

tested on: H2122 human lung cancer cells; test: In vitro growth inhibition of human cancer cells under anchorage-independent conditions in soft agar (colony count); format: cell-based; settings: NCI-H2122, 336 h, 50% reduction in colony number vs DMSO controls, two weeks incubation, MTT stain
Protocol: In vitro growth inhibition of human cancer cells: Growth inhibition of human lung cancer cells by the compounds was measured under anchorage-independent conditions in soft agar. H2122 human lung cancer cells were seeded into 6-well plates (coated with a base layer made of 2 ml of 1% low-melting-point agarose) at 15,000 cells per well in 3 ml of 0.4% low-melting-point agarose containing various concentration of drug. Two weeks after incubation, cells were stained with 1 mg/ml MTT and colonies were counted under a microscope. […] Data are analyzed using Excel (Microsoft), and IC50 values are determined using Prism (Graphpad). The results of the in vitro H2122 growth inhibition activity of the representative compounds of the present invention are shown in the following Table: […]

Row | SMILES | IC50 [nM]
1 | CCCc1n[nH]c2c1C(c1cc(OC)ccc1OC)C(C#N)=C(N)O2 (stereo not drawn) [Compound 2] | 3560
2 | CCCc1n[nH]c2c1C(c1ccc3ccccc3c1)C(C#N)=C(N)O2 (stereo not drawn) [Compound 3] | 3720
3 | CCCc1nn(C)c2c1C(c1cc(OC)ccc1OC)C(C#N)=C(N)O2 (stereo not drawn) [Compound 5] | 3860
4 | Cc1n[nH]c2c1C(c1ccc(OC(F)(F)F)cc1)C(C#N)=C(N)O2 (stereo not drawn) [Compound 7] | 3210
5 | COc1cc(OC)c(C2C(C#N)=C(N)Oc3[nH]nc(C)c32)c(OC)c1 (stereo not drawn) [Compound 8] | 3280
6 | Cc1n[nH]c2c1C(c1ccc(C(F)(F)F)cc1)C(C#N)=C(N)O2 (stereo not drawn) [Compound 9] | 5050
7 | Cc1nn(C)c2c1C(c1ccc(-c3ccccc3)cc1)C(C#N)=C(N)O2 (stereo not drawn) [Compound 12] | 4000
8 | COc1cc(C2C(C#N)=C(N)Oc3c2c(C)nn3C)ccc1C(F)(F)F (stereo not drawn) [Compound 13] | 2990
9 | Cc1nn(C)c2c1C(c1cccc(-c3cncnc3)c1)C(C#N)=C(N)O2 (stereo not drawn) [Compound 14] | 5050
10 | Cc1nn(C)c2c1C(c1ccc(-c3ncccn3)cc1)C(C#N)=C(N)O2 (stereo not drawn) [Compound 24] | 6130
11 | CC(C)c1nn(C)c2c1C(c1ccc(C(F)(F)F)cc1)C(C#N)=C(N)O2 (stereo not drawn) [Compound 26] | 2960
12 | Cn1nc(-c2cc3ccccc3o2)c2c1OC(N)=C(C#N)C2c1ccc(C(F)(F)F)cc1 (stereo not drawn) [Compound 28] | 3420
13 | Cn1nc(-c2cc3ccccc3o2)c2c1OC(N)=C(C#N)C2c1ccc(OC(F)(F)F)cc1 (stereo not drawn) [Compound 29] | 3910
14 | COc1ccc(OC)c(C2C(C#N)=C(N)Oc3c2c(-c2cc4ccccc4o2)nn3C)c1 (stereo not drawn) [Compound 31] | 6210
15 | Cc1nn(C)c2c1C(c1ccc(N(C)C)cc1)C(C#N)=C(N)O2 (stereo not drawn) [Compound 34] | > 10000
16 | Cc1nn(C)c2c1C(c1ccc(N3CCCC3)cc1)C(C#N)=C(N)O2 (stereo not drawn) [Compound 36] | 8390
17 | Cc1nn(C)c2c1C(c1ccc(-n3cccc3)cc1)C(C#N)=C(N)O2 (stereo not drawn) [Compound 37] | 6020
18 | Cc1nn(C)c2c1C(c1ccc(-n3cccn3)cc1)C(C#N)=C(N)O2 (stereo not drawn) [Compound 38] | 5750
19 | Cc1cn(-c2ccc(C3C(C#N)=C(N)Oc4c3c(C)nn4C)cc2)cn1 (stereo not drawn) [Compound 39] | 5110
20 | COc1ccc(-c2nn(-c3ccccc3)c3c2C(c2ccc(-n4ccnc4)cc2)C(C#N)=C(N)O3)cc1 (stereo not drawn) [Compound 49] | 3150

Second part, the compound after the results:

Row | IC50 [nM] | SMILES
21 | 2210 | CCCc1n[nH]c2c1C(c1cc(Cl)cc(Cl)c1O)C(C#N)=C(N)O2 (stereo not drawn) [Compound 1]
22 | 1590 | CCCc1nn(C)c2c1C(c1cc(Cl)cc(Cl)c1O)C(C#N)=C(N)O2 (stereo not drawn) [Compound 4]
23 | 900 | Cc1n[nH]c2c1C(c1ccc(-n3ccnc3)cc1)C(C#N)=C(N)O2 (stereo not drawn) [Compound 10]
24 | 2190 | COc1cccc(OC)c1C1C(C#N)=C(N)Oc2c1c(C)nn2C (stereo not drawn) [Compound 11]
25 | 1710 | COc1cc(C(F)(F)F)ccc1C1C(C#N)=C(N)Oc2c1c(C)nn2C (stereo not drawn) [Compound 15]
26 | 1020 | Cc1nn(C)c2c1C(c1ccc(-n3ccnc3C)cc1)C(C#N)=C(N)O2 (stereo not drawn) [Compound 16]
27 | 1350 | Cn1nc(C(C)(C)C)c2c1OC(N)=C(C#N)C2c1ccc(-n2ccnc2)cc1 (stereo not drawn) [Compound 17]
28 | 1280 | Cn1nc(C2CCCC2)c2c1OC(N)=C(C#N)C2c1ccc(-n2ccnc2)cc1 (stereo not drawn) [Compound 18]
29 | 490 | Cn1nc(-c2cc3ccccc3o2)c2c1OC(N)=C(C#N)C2c1ccc(-n2ccnc2)cc1 (stereo not drawn) [Compound 20]
30 | 890 | Cn1nc(Cc2ccccc2)c2c1OC(N)=C(C#N)C2c1ccc(-n2ccnc2)cc1 (stereo not drawn) [Compound 21]
31 | 2040 | Cn1nc(-c2ccccn2)c2c1OC(N)=C(C#N)C2c1ccc(-n2ccnc2)cc1 (stereo not drawn) [Compound 22]
32 | 1080 | Cn1nc(-c2cnccn2)c2c1OC(N)=C(C#N)C2c1ccc(-n2ccnc2)cc1 (stereo not drawn) [Compound 23]
33 | 1070 | CC(C)c1nn(C)c2c1C(c1ccc(-n3ccnc3)cc1)C(C#N)=C(N)O2 (stereo not drawn) [Compound 25]
34 | 840 | Cc1nn(C)c2c1C(c1ccc(-n3cnc4ccccc43)cc1)C(C#N)=C(N)O2 (stereo not drawn) [Compound 27]
35 | 1710 | Cn1nc(-c2cc3ccccc3o2)c2c1OC(N)=C(C#N)C2c1cc(Cl)cc(Cl)c1O (stereo not drawn) [Compound 30]
36 | 2910 | Cc1nnc(-c2ccc(C3C(C#N)=C(N)Oc4c3c(C)nn4C)cc2)o1 (stereo not drawn) [Compound 32]
37 | 2490 | Cc1nn(C)c2c1C(c1ccc(-n3cncn3)cc1)C(C#N)=C(N)O2 (stereo not drawn) [Compound 33]
38 | 2780 | CC(=O)Nc1ccc(C2C(C#N)=C(N)Oc3c2c(C)nn3C)cc1 (stereo not drawn) [Compound 35]
39 | 1590 | Cc1nccn1-c1ccc(C2C(C#N)=C(N)Oc3c2c(-c2cc4ccccc4o2)nn3C)cc1 (stereo not drawn) [Compound 40]
40 | 1820 | Cn1nc(-c2n[nH]c3ccccc23)c2c1OC(N)=C(C#N)C2c1ccc(-n2ccnc2)cc1 (stereo not drawn) [Compound 41]
41 | 1120 | Cc1nn(C(C)(C)C)c2c1C(c1ccc(-n3ccnc3)cc1)C(C#N)=C(N)O2 (stereo not drawn) [Compound 42]
42 | 700 | Cc1nn(-c2ccccc2)c2c1C(c1ccc(-n3ccnc3)cc1)C(C#N)=C(N)O2 (stereo not drawn) [Compound 43]
43 | 980 | Cc1nn(-c2ccc(F)cc2)c2c1C(c1ccc(-n3ccnc3)cc1)C(C#N)=C(N)O2 (stereo not drawn) [Compound 44]
44 | 1620 | COc1ccc(-n2nc(C)c3c2OC(N)=C(C#N)C3c2ccc(-n3ccnc3)cc2)cc1 (stereo not drawn) [Compound 45]
45 | 2080 | Cc1nn(-c2ccncc2)c2c1C(c1ccc(-n3ccnc3)cc1)C(C#N)=C(N)O2 (stereo not drawn) [Compound 46]
46 | 1320 | COc1ccc(-c2n[nH]c3c2C(c2ccc(-n4ccnc4)cc2)C(C#N)=C(N)O3)cc1 (stereo not drawn) [Compound 47]
47 | 1320 | COc1ccc(-c2nn(C)c3c2C(c2ccc(-n4ccnc4)cc2)C(C#N)=C(N)O3)cc1 (stereo not drawn) [Compound 48]

tested on: MiaPaCa2 pancreatic cell line; test: not given; settings: inhibitory effects were modest; cited from earlier work

Row | SMILES | inhibition of in vitro growth and survival
48 | COC(=O)[C@H](CC(C)C)NC(=O)N1CCN(Cc2nc[nH]c2C)C(=O)[C@@H]1Cc1ccccc1 [GGTI-2417] | inhibit the in vitro growth and survival
